Results reported in patent US7183267B2, “β-lactamase inhibitors and methods of use thereof” (priority 2003, dated 2007).

Columns and labels:
[1] = biological target: T1, TEM-1 β-lactamase (Escherichia coli, UniProt P62593); assay: TEM-1 β-lactamase inhibition assay (nitrocefin hydrolysis, 486 nm); format: biochemical
Description: The inhibition of TEM-1 β-lactamase was determined spectrophotometrically. B-lactamase activity was followed by measuring the hydrolysis of nitrocefin, [3-(2,4-dinitrostyryl)-(6R, 7R)-7-(2-thienylacetamido)-ceph-3-em-4-carboxylic acid, E-isomer], (Calbiochem, San Diego, Calif., USA) at 486 nm. Inhibition assays were performed at 25° C. in 50 mM sodium phosphate, 5% DMSO, pH 7.0. […] Inhibitor was added to the enzyme and incubated for ten minutes before the addition of substrate. Inhibition constants (Ki) for the inhibitors are obtained at the desired temperature and solvent conditions by measuring the rate of substrate hydrolysis at increasing amounts of inhibitors.
(§1) The competitive inhibition of β-lactamase was determined spectrophotometrically using a Varian (Walnut Creek, Calif.) Cary 100 UV-Visible spectrophotometer. β-lactamase activity was followed by measuring the hydrolysis of nitrocefin, [3-(2,4-dinitrostyryl)-(6R, 7R)-7-(2-thienylacetamido)-ceph-3-em-4-carboxylic acid, E-isomer], (Calbiochem, San Diego, Calif.) at 486 nm. Inhibition assays were performed at 25° C. in 50 mM sodium phosphate, 5% DMSO, pH 7.0. […] Penicillin G (Sigma, St. Louis, Mo.) was also used as a substrate to determine KM and kcat.
(§2) Inhibitor was added to protein and incubated for ten minutes before the addition of substrate. Inhibition constants were determined by measuring the loss of P-lactamase activity with increasing inhibitor concentrations and fitting the data to standard equations for competitive inhibition.
(§3) These methods can also be used to express and assay recombinant TEM-1 variant of β-lactamase.

[2] = biological target: T2, AmpC β-lactamase (Escherichia coli, UniProt P00811); assay: AmpC β-lactamase competitive inhibition assay (nitrocefin hydrolysis); format: biochemical
T2 construct: made in house; host or cells: E. coli BL21 (DE3)
T2 sequence (P00811 20-377): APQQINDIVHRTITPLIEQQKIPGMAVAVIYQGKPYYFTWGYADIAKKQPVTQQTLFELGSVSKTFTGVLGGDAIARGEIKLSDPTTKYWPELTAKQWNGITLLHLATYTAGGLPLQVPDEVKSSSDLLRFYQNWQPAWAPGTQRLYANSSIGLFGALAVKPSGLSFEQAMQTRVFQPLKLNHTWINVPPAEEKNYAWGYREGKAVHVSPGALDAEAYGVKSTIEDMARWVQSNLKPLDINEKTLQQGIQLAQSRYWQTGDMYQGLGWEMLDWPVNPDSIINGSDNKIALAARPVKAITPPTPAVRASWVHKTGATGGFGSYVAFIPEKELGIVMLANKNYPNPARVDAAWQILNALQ
Description: The gene for AmpC β-lactamase (accession number P00811) was obtained from Escherichia coli K12 strain W3110 (American Type Culture Collection, Rockville Md.). E. coli was grown and plasmid (F-lacIq lacPL8 ampC::lambdacI+) was isolated via Qiagen (Valencia, Calif.) mini prep. The gene for AmpC was amplified in two pieces via polymerase chain reaction, ligated and purified by agarose gel electrophoresis. The ligated gene was inserted into a pET200 vector via a TOPO reaction (Invitrogen, Carlsbad, Calif.).
BL21 (DE3) (Invitrogen) cells were transformed by heat-shock with the prepared plasmid. These cells were grown to an OD600 of 0.8 at 37° C. Isopropylthiogalactoside (IPTG) was added to 1 mM, incubation temperature decreased to 25° C. and the cells were grown for an additional 18 hours. After 18 hours, the E. coli was pelleted by centrifugation, and discarded. The growth media was concentrated and dialyzed versus 100 mM Tris, pH 7.0. This solution was run through an equilibrated Q-resin column, and washed with excess 100 mM Tris, pH 7.0.
as §1, §2

[3] = biological target: T2, AmpC β-lactamase; settings: binding to AmpC; ITC
Description: (§4) Isothermal titration calorimetry was performed on a high-precision VP-ITC titration calorimeter (Microcal Inc., Northampton, Mass.). β-Lactamase solutions were titrated with inhibitors in 50 mM sodium phosphate, 2% DMSO, pH 7.0, with β-lactamase concentrations ranging from 15 to 25 μM and inhibitor concentrations ranging from 300 to 1000 μM. The heat evolved from each injection was obtained by integrating the calorimetric signal. Heat of binding was obtained as the difference between the heat of reaction and the heat of inhibitor dilution. Data were analyzed using Origin 7.0 (OriginLab Corporation, Northampton, Mass.).
Isothermal titration calorimetry was undertaken to determine the thermodynamic characteristics of binding to AmpC β-lactamase.

[4] = biological target: T1, TEM-1 β-lactamase; assay: Isothermal titration calorimetry, binding to TEM-1 β-lactamase (Example 17); settings: ITC
Description: as §4, §3
Also shown are the results obtained for β-lactamase variant TEM-1.

[5] = Ki, 25° C., 50 mM sodium phosphate, 5% DMSO, pH 7.0, enzyme 5 nM, nitrocefin 167 μM
[6] = Ki from Lineweaver-Burke Analysis, values in parenthesis, Lineweaver-Burke analysis

T1 sequence (P62593 24-286 limits assumed): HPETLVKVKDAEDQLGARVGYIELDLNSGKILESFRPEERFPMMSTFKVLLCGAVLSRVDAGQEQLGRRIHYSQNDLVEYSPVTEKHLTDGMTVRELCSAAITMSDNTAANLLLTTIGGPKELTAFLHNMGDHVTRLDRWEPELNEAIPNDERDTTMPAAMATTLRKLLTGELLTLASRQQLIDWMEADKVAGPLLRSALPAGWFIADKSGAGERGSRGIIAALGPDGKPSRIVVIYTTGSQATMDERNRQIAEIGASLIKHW

In the case of `Cc1cccc(OC(=O)c2cc(B(O)O)cc([N+](=O)[O-])c2)c1` [(1m), 3-(3-Methylphenoxycarbonyl)-5-nitrophenylboronic acid], the Ki [1, 5] is reported as 114 ± 12 µM.
For `O=C(Oc1ccncc1)c1cc(B(O)O)cc([N+](=O)[O-])c1` [(1r), 3-(4-pyridyloxycarbonyl)-5-nitro-phenylboronic acid], the Ki [1, 5] was 138 ± 2.7 µM.
With `O=C(Oc1ccccc1Br)c1cc(B(O)O)cc([N+](=O)[O-])c1` [(1u), 3-(2-Bromophenoxycarbonyl)-5-nitro-phenylboronic acid] the Ki [1, 6] was 1.68 µM and the Ki [1, 5] was 25 ± 2.5 µM.
`O=C(Oc1c(Cl)cccc1[N+](=O)[O-])c1ccc(B(O)O)cc1F` [(8a), 4-(2-Chloro-6-nitrophenoxycarbonyl)-3-fluorophenylboronic acid] showed a Ki [2] of 0.913 µM, a Ki [1, 5] of 43 ± 1.6 µM and a ΔG [3] of -8.19 kcal/mol. The ΔH [3] was -8.486 kcal/mol and the “−TΔS” value [3] was 0.296 kcal/mol.
`CCOC(=O)c1ccc(OC(=O)c2cc(B(O)O)cc([N+](=O)[O-])c2)cc1` [Compound (1e), 3-(4-Ethoxycarbonylphenoxycarbonyl)-5-nitrophenylboronic acid] showed a Ki [1, 5] of over 1000 µM.
`Cc1ccccc1OC(=O)c1cc(B(O)O)cc([N+](=O)[O-])c1` [Compound (1k), 3-(2-Methylphenoxycarbonyl)-5-nitro-phenylboronic acid] gave a Ki [1, 5] of 130 ± 18 µM.
`COc1ccccc1OC(=O)c1cc(B(O)O)cc([N+](=O)[O-])c1` [Compound (1l), 3-(2-Methoxylphenoxycarbonyl)-5-nitrophenylboronic acid] showed a Ki [1, 5] of 116 ± 7 µM.
`O=C(Oc1c(Cl)cccc1Cl)c1cc(B(O)O)cc([N+](=O)[O-])c1` [Compound (1n), 3-(2,6-Dichlorophenoxycarbonyl)-5-nitrophenylboronic acid] gave a Ki [1, 6] of 0.62 µM, a Ki [1, 5] of 8.8 ± 0.5 µM and a Ki ([1]; Ki, TEM-1 β-lactamase) of 8.8 µM. For the same compound, the ΔG [4] was -5.608 kcal/mol, the ΔH [4] was -1.173 kcal/mol and the “−TΔS” value [4] was -4.435 kcal/mol.
Work on `O=C(Oc1ccccc1F)c1cc(B(O)O)cc([N+](=O)[O-])c1` [Compound (1o), 3-(2-Fluorophenoxycarbonyl)-5-nitrophenylboronic acid] yielded a Ki [1, 5] of 49.3 ± 4.6 µM.
For `O=C(Oc1c(F)cccc1F)c1cc(B(O)O)cc([N+](=O)[O-])c1` [Compound (1p), 3-(2,6-Difluorophenoxycarbonyl)-5-nitrophenylboronic acid], the Ki [1, 5] was 19.8 ± 1.3 µM, the Ki ([1]; Ki, TEM-1 β-lactamase) was 19.8 µM and the ΔG [4] was -5.916 kcal/mol. The ΔH [4] was -6.715 kcal/mol and the “−TΔS” value [4] was 0.799 kcal/mol.
Compound `O=C(Oc1ccc(F)cc1)c1cc(B(O)O)cc([N+](=O)[O-])c1` [Compound (1q), 3-(4-Fluorophenoxycarbonyl)-5-nitrophenylboronic acid] has a Ki [1, 5] of 100 ± 8 µM.
For `O=C(Oc1cccnc1Cl)c1cc(B(O)O)cc([N+](=O)[O-])c1` [Compound (1s), 3-(2-Chloro-3-pyridyloxycarbonyl)-5-nitrophenylboronic acid], the Ki [1, 5] was 42.3 ± 2.4 µM.
Work on `O=C(Oc1ccccc1)c1cc(B(O)O)cc([N+](=O)[O-])c1` [Compound (1t), 3-Phenoxycarbonyl-5-nitrophenylboronic acid] yielded a Ki [1, 6] of 6.54 µM and a Ki [1, 5] of 95 ± 8.7 µM.
Work on `O=C(Oc1cccc(B(O)O)c1)c1cc(B(O)O)cc([N+](=O)[O-])c1` [Compound (1v), 3-(3-Boronophenoxycarbonyl)-5-nitrophenylboronic acid] yielded a Ki [2] of 5.01 µM, a Ki [1, 5] of 32 ± 1.1 µM and a ΔG [3] of -7.221 kcal/mol. For the same compound, the ΔH [3] was -10.412 kcal/mol and the “−TΔS” value [3] was 3.191 kcal/mol.
With `O=C(Oc1c(Cl)cc(Cl)cc1[N+](=O)[O-])c1cc(B(O)O)cc([N+](=O)[O-])c1` [Compound (1w), 3-(2,4-Dichloro-6-nitro-phenoxycarbonyl)-5-nitro-phenylboronic acid] the Ki [1, 5] was 13 ± 1.1 µM, the Ki ([1]; Ki, TEM-1 β-lactamase) was 12.7 µM and the ΔG [4] was -6.409 kcal/mol. The ΔH [4] was -4.554 kcal/mol and the “−TΔS” value [4] was -1.855 kcal/mol.
Compound `O=C(Oc1c(Cl)cc(Cl)cc1Cl)c1cc(B(O)O)cc([N+](=O)[O-])c1` [Compound (1y), 3-(2,4,6-Trichlorophenoxycarbonyl)-5-nitro-phenylboronic acid] has a Ki ([1]; Ki, TEM-1 β-lactamase) of 15.8 µM, a ΔG [4] of -6.55 kcal/mol and a ΔH [4] of 0 kcal/mol. For the same compound, the “−TΔS” value [4] was -6.55 kcal/mol.
`O=C(Oc1ccc(OC(=O)c2cc(B(O)O)cc([N+](=O)[O-])c2)cc1)c1cc(B(O)O)cc([N+](=O)[O-])c1` [Compound (2a), 3-Borono-5-nitrobenzoic acid 1,4-phenylene ester] was tested, and the Ki [1, 5] was 22.7 ± 1.3 µM, the Ki ([1]; Ki, TEM-1 β-lactamase) was 22.7 µM and the ΔG [4] was -7.451 kcal/mol. The ΔH [4] was 0.274 kcal/mol and the “−TΔS” value [4] was -7.725 kcal/mol.
In the case of `O=C(OCc1c(Cl)cccc1Cl)c1cc(B(O)O)cc([N+](=O)[O-])c1` [Compound (3a), 3-(2,6-Dichlorobenzyloxycarbonyl)-5-nitrophenylboronic], the Ki [1, 6] is reported as 4.97 µM and the Ki [1, 5] is reported as 34 ± 2.9 µM.
`O=C(OCc1cccc([N+](=O)[O-])c1)c1cc(B(O)O)cc([N+](=O)[O-])c1` [Compound (3b), 3-(3-Nitrobenzyloxycarbonyl)-5-nitrophenylboronic acid] was tested, and the Ki [1, 6] was 2.76 µM and the Ki [1, 5] was 27 ± 3.4 µM.
`O=C(OCc1cccc(Cl)c1)c1cc(B(O)O)cc([N+](=O)[O-])c1` [Compound (3c), 3-(3-Chlorobenzyloxycarbonyl)-5-nitrophenylboronic acid] showed a Ki [1, 6] of 2.35 µM and a Ki [1, 5] of 25 ± 1.5 µM.
In the case of `O=C(OCc1cccc2ccccc12)c1cc(B(O)O)cc([N+](=O)[O-])c1` [Compound (3e), 3-(1-Naphthalenemethoxycarbonyl)-5-nitrophenylboronic acid], the Ki ([1]; Ki, TEM-1 β-lactamase) is reported as 17.1 µM, the ΔG [4] is reported as -6.164 kcal/mol and the ΔH [4] is reported as 0.224 kcal/mol. For the same compound, the “−TΔS” value [4] was -6.388 kcal/mol.
With `Nc1cc(B(O)O)cc(C(=O)OCc2cccc(B(O)O)c2)c1` [Compound (3f), 3-(3-Boronobenzyloxycarbonyl)-5-aminophenylboronic acid] the Ki [2] was 0.724 µM, the ΔG [3] was -8.151 kcal/mol and the ΔH [3] was -9.325 kcal/mol. For the same compound, the “−TΔS” value [3] was 1.174 kcal/mol.
Work on `O=C(OCc1cccc(B(O)O)c1)c1cc(O)cc(B(O)O)c1` [Compound (3g), 3-(3-Boronobenzyloxycarbonyl)-5-hydroxylphenylboronic acid] yielded a Ki [2] of 2.69 µM, a ΔG [3] of -7.356 kcal/mol and a ΔH [3] of -3.677 kcal/mol. For the same compound, the “−TΔS” value [3] was -3.679 kcal/mol.
`O=C(O)c1cc(NC(=O)c2ccccc2F)cc(B(O)O)c1` [Compound (4a), 3-(2-Fluorobenzamido)-5-carboxylphenylboronic acid] gave a Ki [1, 5] of 143 ± 9 µM.
In the case of `Nc1cc(B(O)O)cc(C(=O)O)c1` [Compound (5a), 3–5-carboxylphenylboronic acid], the Ki [1, 5] is reported as 727 ± 49 µM.
For `O=C(Oc1cccc(OC(=O)c2cc(B(O)O)cc([N+](=O)[O-])c2)c1)c1cc(B(O)O)cc([N+](=O)[O-])c1` [Compound (9a), 3-Borono-5-nitrobenzoic acid 1,3-phenylene ester], the Ki [1, 5] was 16 ± 1.5 µM, the Ki ([1]; Ki, TEM-1 β-lactamase) was 16.2 µM and the ΔG [4] was -7.864 kcal/mol. The ΔH [4] was 0.446 kcal/mol and the “−TΔS” value [4] was -8.31 kcal/mol.
`O=C(Oc1cccc(B(O)O)c1)c1ccc(C(=O)Oc2cccc(B(O)O)c2)cc1` [Compound (11a), 1,4-Benzenedicarboxylic Acid, di 3-boronophenyl ester] showed a Ki [2] of 1.31 µM, a ΔG [3] of -7.548 kcal/mol and a ΔH [3] of -3.114 kcal/mol. For the same compound, the “−TΔS” value [3] was -4.434 kcal/mol.
`CCCCOC(=O)c1cccc(B(O)O)c1` [Compound BB-1003] was tested, and the Ki [1, 5] was 231 µM.
In the case of `CC(C)(C)OC(=O)Oc1cccc(B(O)O)c1` [Compound BB-1004], the Ki [1, 5] is reported as 297 µM.
`O=C(c1cccc(B(O)O)c1)N1CCCC1` [Compound BB-1005] gave a Ki [1, 5] of 392 µM.
With `O=C(OCc1ccccc1)c1ccc(B(O)O)cc1` [Compound F1002] the Ki [1, 5] was 148 µM.
For `OB(O)c1cccc2c1Sc1ccccc1S2` [Compound F1012], the Ki [1, 5] was 113 µM.
